Results taken from patent US20070203215A1, “Methods & Compositions For Enhancing Pharmaceutical Treatments” (Taiji Biomedical, Inc., priority 1999, published 2007).
Read-outs that look alike come from different tables or passages of the source.

Tests used:
MDA/LCC6^MDR1 = test: Reversal of MDR in P-gp-expressing cell line; assay type: cell-based, human; conditions: for EC50: Homo sapiens, MDA/LCC6^MDR1 breast
Method: (§1) Cell proliferation IC50s and MDR reversal EC50s were determined from 3-day dose-response curves carried out in triplicate in 96-well plates essentially as described by Monks et al. (J. Natl. Cancer Inst., 83:757-66, 1991). Cells were plated in standard growth medium at 2.5 or 5.0×10^4 per well (CCRF-CEM and CEM/VLB1000 respectively) or 5×10^3 per well (all other cell lines) in a final volume of 100 μl. After a 2 h incubation for non-adherent cells and overnight incubation for adherent cells, the initial cell density was determined by fluorescence readout of Alamar Blue metabolism. The compound of Formula 2, cytotoxic agents, or compound vehicles were added to duplicate plates and the incubation was continued for an additional 72 h. Final cell density was determined with Alamar Blue. In some experiments, a standard endpoint assay was used without analysis of initial cell density with Alamar Blue. Similar results were obtained with the two assays. EC50s were derived by nonlinear regression analysis assuming a sigmoidal dose-response using GraphPad Prism Software (San Diego, Calif.). Proliferation assays capable of measuring both cytostatic and cytotoxic responses were carried out as described herein with 15 non-transformed and transformed cell lines, including primary fibroblasts, non-transformed smooth muscle, leukemia, breast, colon, ovarian and uterine carcinoma cells (±P-gp expression). Although the compound of Formula 2 reversed P-gp-mediated MDR in the low nanomolar concentration range, the compound was non-cytotoxic by itself at doses up to 100 μM in all cell lines. […] IC50s for non-specific cytotoxicity were similar in matched cell lines plus and minus P-gp expression. […] If it were, some consistent degree of resistance would be expected in P-gp expressing cells.

human CYP3A4 = human CYP3A4 (Homo sapiens, UniProt P08684); test: Inhibition of CYP3A4-mediated paclitaxel metabolism; assay type: in vitro ADME
Chain of human CYP3A4 (P08684 whole entry): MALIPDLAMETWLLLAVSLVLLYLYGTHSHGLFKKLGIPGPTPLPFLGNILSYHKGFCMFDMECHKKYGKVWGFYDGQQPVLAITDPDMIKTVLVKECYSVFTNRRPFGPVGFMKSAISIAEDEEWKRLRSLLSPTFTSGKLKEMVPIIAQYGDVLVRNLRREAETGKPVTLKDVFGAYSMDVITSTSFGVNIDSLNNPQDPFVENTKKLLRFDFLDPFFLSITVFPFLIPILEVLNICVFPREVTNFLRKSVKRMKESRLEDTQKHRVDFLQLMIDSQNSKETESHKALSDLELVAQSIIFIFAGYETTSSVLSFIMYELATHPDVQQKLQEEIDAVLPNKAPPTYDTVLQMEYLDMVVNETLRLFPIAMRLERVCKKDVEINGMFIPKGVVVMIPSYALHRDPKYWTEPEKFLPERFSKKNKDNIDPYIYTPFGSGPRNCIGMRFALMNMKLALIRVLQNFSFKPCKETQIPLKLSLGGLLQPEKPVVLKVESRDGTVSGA
Excerpt: (§2) Two enzymes primarily responsible for metabolism of paclitaxel are P450 CYP3A4 and CYP2C8. Some P-gp inhibitors are also metabolized by P450 CYP 3A4, leading to inhibition of paclitaxel metabolism. This may contribute to PK interactions with paclitaxel.

P450 CYP3A4 = P450 CYP3A4 (Homo sapiens, UniProt P08684); test: Metabolism by P450 CYP3A4; assay type: in vitro ADME
Chain of P450 CYP3A4 (P08684 whole entry): as above
Excerpt: as §2

MCF-7/ADR = test: Cell proliferation assay; assay type: cell-based; conditions: Homo sapiens, NCI/ADR-RES; Breast carcinoma MCF-7/ADR, P-gp Pos; read-out: Formula 2 compound IC50 (inhibition of growth)
Method: as §1

HCT-15 = test: Cell proliferation assay; assay type: cell-based; conditions: Homo sapiens; Colorectal carcinoma HCT-15, P-gp Pos; read-out: Formula 2 compound IC50 (inhibition of growth)
Method: as §1

SW480 = test: Cell proliferation assay; assay type: cell-based; conditions: Homo sapiens; Colorectal carcinoma SW480, P-gp Pos; read-out: Formula 2 compound IC50 (inhibition of growth)
Method: as §1

HISM = test: Cell proliferation assay; assay type: cell-based; conditions: Homo sapiens; Smooth muscle HISM; read-out: Formula 2 compound IC50 (inhibition of growth)
Method: as §1

CCD-986SK = test: Cell proliferation assay; assay type: cell-based; conditions: Homo sapiens; Primary fibroblast CCD-986SK; read-out: Formula 2 compound IC50 (inhibition of growth)
Method: as §1

CEM = test: Cell proliferation assay; assay type: cell-based; conditions: Homo sapiens, CCRF-CEM; Lymphoma CEM, P-gp Neg; read-out: Formula 2 compound IC50 (inhibition of growth)
Method: as §1

MES-SA = test: Cell proliferation assay; assay type: cell-based; conditions: Homo sapiens; Uterine carcinoma MES-SA, P-gp Neg; read-out: Formula 2 compound IC50 (inhibition of growth)
Method: as §1

SK/VLB1000 = test: Cell proliferation assay; assay type: cell-based; conditions: Homo sapiens; Ovarian carcinoma SK/VLB1000, P-gp Pos; read-out: Formula 2 compound IC50 (inhibition of growth)
Method: as §1

HT-29 = test: Cell proliferation assay; assay type: cell-based; conditions: Homo sapiens; Colorectal carcinoma HT-29, P-gp Neg; read-out: Formula 2 compound IC50 (inhibition of growth)
Method: as §1

Which results are given for `CCOC/C=C/c1ccc(-c2nc(-c3ccc(NC(C)C)cc3)c(-c3ccc(NC(C)C)cc3)[nH]2)cc1` [Formula 2 compound]?
Resistance to paclitaxel treatment in vitro (MDA/LCC6^MDR1; FIG. 1): reversed; EC50 (MDA/LCC6^MDR1; read-out: Formula 2 compound EC50, reversal of Doxorubicin resistance): 0.013 µM; EC50 (MDA/LCC6^MDR1; read-out: Formula 2 compound EC50, reversal of Paclitaxel resistance): 0.009 µM; Ki (human CYP3A4): 39.8 ± 5.1 µM; Ki (CYP3A4) relative to EC50s for reversal of MDR (human CYP3A4; higher): approximately 1000 fold; Metabolism by P450 CYP3A4 (P450 CYP3A4): not metabolized; IC50 (MCF-7/ADR): 68 µM; IC50 (HCT-15): 6 µM; IC50 (SW480): > 100 µM; IC50 (HISM): > 100 µM; IC50 (CCD-986SK): > 100 µM; IC50 (CEM): 38 µM; IC50 (MES-SA): 51 µM; IC50 (SK/VLB1000): 15 µM; IC50 (HT-29): 12 µM
